Assay results as given in PMC9851200, “Multiparameter phenotypic screening for endogenous TFEB and TFE3 translocation identifies novel chemical series modulating lysosome function” (Autophagy, 2022).

How the values were obtained:
Assay type in all cases: binding
[1] = target: T1, kinases (KINOMEscan panel) (Homo sapiens, UniProt O00444); conditions: kinase PLK4; NEW KINOMEscan
T1 sequence (O00444 1-970): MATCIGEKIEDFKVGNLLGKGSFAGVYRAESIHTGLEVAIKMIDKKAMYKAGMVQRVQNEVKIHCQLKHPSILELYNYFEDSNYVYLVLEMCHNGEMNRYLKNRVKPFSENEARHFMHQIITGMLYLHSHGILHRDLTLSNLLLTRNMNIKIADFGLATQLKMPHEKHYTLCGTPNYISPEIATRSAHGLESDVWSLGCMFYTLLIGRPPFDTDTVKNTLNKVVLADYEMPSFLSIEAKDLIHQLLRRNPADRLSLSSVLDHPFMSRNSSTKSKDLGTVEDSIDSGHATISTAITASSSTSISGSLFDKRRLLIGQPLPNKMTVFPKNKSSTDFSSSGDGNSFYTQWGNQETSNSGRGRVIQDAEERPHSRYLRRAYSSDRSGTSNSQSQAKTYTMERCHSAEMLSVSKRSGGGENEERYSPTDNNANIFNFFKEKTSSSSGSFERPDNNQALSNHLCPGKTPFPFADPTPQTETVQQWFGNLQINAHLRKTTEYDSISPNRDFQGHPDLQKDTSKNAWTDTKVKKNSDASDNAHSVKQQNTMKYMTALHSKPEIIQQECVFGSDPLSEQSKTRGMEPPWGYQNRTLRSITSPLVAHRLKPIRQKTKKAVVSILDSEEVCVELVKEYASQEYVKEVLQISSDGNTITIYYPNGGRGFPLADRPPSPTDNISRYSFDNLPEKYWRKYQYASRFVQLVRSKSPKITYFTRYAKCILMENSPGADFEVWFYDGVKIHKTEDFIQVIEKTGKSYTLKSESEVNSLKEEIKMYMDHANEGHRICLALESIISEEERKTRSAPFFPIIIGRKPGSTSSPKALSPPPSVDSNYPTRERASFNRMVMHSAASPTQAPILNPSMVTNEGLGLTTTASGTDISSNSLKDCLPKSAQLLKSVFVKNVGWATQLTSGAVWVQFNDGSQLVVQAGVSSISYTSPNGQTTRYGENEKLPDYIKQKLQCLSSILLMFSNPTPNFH

[2] = target: T2, kinases (KINOMEscan panel) (Homo sapiens, UniProt O15075); conditions: NEW KINOMEscan
T2 sequence (O15075 1-740): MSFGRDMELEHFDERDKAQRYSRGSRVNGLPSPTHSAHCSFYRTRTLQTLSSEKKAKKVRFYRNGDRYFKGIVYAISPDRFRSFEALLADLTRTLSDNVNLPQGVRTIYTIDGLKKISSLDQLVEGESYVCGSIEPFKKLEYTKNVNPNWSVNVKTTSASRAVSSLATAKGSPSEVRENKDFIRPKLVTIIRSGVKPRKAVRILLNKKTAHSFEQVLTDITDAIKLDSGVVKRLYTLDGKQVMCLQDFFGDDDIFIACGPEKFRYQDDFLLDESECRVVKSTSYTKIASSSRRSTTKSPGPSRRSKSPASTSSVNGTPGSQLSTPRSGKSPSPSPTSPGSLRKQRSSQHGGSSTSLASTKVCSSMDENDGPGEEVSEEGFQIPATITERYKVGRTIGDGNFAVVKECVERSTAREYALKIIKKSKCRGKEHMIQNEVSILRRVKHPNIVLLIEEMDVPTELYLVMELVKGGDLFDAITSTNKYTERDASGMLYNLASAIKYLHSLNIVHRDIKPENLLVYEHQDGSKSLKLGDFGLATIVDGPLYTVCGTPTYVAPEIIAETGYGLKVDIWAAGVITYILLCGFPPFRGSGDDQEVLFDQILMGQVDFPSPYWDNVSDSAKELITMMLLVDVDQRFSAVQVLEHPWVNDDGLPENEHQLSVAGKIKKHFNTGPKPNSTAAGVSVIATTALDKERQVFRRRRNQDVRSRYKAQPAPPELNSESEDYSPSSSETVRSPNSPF

[3] = target: kinases (KINOMEscan panel) (Homo sapiens, UniProt P36888, R834Q); conditions: kinase FLT3(R834Q); NEW KINOMEscan
[4] = target: kinases (KINOMEscan panel) (Homo sapiens, UniProt P42338); conditions: PIK3CB; NEW KINOMEscan
[5] = target: T3, kinases (KINOMEscan panel) (Homo sapiens, UniProt Q86YV6); conditions: kinase MYLK4; NEW KINOMEscan
T3 sequence (Q86YV6 1-388): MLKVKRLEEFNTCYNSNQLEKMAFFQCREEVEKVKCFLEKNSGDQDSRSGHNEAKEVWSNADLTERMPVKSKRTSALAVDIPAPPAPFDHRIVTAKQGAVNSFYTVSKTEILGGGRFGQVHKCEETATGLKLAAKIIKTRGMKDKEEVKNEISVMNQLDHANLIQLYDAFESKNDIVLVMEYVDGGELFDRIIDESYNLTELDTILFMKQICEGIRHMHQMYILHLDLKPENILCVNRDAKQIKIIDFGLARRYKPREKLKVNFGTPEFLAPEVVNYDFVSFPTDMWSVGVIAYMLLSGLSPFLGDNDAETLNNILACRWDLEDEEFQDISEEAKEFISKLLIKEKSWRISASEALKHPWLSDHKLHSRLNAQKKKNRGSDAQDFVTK

[6] = target: kinases (KINOMEscan panel) (Homo sapiens, UniProt Q9H2X6); conditions: NEW KINOMEscan
[7] = target: kinases (KINOMEscan panel) (Homo sapiens, UniProt Q9HAZ1); conditions: kinase CLK4; NEW KINOMEscan
[8] = target: kinases (KINOMEscan panel) (Homo sapiens, UniProt Q9HCP0); conditions: kinase CSNK1G1; NEW KINOMEscan
Chain of kinases (KINOMEscan panel) (Homo sapiens, UniProt Q9HCP0) (Q9HCP0 whole entry): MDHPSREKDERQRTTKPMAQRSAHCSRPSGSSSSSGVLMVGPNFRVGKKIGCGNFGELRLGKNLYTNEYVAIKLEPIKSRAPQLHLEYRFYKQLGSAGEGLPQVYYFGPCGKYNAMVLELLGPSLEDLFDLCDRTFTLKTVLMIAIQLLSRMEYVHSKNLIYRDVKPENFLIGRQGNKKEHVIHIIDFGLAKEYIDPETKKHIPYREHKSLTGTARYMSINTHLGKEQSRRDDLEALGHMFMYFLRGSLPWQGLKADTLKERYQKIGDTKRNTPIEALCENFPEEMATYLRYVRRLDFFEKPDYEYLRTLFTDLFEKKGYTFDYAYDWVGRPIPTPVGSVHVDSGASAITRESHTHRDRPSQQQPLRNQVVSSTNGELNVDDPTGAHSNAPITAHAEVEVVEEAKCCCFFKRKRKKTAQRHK

Chain of kinases (KINOMEscan panel) (Homo sapiens, UniProt P42338) (P42338 whole entry): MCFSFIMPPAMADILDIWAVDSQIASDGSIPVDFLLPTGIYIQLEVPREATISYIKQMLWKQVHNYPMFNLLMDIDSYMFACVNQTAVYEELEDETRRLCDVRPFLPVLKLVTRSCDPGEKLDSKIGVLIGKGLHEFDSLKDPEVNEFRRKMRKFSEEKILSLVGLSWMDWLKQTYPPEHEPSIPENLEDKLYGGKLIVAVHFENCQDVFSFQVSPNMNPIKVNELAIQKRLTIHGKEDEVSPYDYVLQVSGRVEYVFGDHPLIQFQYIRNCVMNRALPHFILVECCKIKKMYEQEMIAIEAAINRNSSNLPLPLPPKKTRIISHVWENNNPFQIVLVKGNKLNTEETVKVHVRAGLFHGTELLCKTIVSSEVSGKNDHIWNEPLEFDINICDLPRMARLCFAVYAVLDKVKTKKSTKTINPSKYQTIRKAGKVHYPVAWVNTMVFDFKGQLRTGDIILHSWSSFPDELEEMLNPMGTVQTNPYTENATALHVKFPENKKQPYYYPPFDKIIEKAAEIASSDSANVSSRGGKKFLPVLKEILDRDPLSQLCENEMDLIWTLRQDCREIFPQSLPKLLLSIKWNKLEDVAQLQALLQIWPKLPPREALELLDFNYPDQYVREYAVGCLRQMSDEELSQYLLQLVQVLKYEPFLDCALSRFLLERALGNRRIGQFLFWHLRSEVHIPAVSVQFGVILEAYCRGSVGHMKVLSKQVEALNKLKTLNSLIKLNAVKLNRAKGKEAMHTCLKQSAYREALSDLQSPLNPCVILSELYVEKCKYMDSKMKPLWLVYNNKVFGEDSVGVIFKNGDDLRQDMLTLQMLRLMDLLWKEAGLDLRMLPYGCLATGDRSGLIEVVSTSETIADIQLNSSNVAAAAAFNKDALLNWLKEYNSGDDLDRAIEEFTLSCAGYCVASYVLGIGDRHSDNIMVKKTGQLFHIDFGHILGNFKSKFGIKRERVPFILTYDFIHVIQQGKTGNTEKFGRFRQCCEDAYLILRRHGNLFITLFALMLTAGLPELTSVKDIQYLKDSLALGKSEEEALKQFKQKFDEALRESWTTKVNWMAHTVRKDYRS
Chain of kinases (KINOMEscan panel) (Homo sapiens, UniProt Q9H2X6) (Q9H2X6 whole entry): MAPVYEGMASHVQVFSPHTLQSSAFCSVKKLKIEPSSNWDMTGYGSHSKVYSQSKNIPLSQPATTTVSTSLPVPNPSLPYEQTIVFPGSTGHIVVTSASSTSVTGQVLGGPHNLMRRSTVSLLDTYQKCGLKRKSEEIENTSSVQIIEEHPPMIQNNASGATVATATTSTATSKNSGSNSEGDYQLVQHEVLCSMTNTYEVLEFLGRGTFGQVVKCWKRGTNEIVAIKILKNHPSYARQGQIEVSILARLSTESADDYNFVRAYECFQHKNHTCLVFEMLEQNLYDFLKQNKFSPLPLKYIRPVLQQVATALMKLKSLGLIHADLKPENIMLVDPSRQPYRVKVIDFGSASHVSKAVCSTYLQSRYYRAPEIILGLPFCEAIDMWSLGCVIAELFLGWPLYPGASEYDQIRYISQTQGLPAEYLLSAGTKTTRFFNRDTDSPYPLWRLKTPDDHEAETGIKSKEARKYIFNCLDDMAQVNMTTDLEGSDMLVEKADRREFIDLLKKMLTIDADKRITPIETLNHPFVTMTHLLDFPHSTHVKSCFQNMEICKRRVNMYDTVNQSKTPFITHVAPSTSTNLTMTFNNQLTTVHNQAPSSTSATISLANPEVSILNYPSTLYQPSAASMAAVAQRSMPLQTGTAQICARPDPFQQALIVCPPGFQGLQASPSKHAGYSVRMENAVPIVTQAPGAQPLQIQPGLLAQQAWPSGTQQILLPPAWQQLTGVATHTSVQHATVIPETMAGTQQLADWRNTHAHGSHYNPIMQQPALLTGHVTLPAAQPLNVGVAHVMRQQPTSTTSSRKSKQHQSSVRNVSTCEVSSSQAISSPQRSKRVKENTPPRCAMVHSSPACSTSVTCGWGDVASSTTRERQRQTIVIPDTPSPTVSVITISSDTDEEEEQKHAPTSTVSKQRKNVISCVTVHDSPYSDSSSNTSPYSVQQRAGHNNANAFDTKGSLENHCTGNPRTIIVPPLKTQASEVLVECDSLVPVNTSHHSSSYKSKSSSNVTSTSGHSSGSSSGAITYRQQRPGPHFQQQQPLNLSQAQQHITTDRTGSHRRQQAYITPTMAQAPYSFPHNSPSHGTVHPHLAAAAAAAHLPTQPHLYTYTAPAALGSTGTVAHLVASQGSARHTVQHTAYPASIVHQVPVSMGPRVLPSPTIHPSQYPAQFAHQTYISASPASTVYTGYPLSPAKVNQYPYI
Chain of kinases (KINOMEscan panel) (Homo sapiens, UniProt Q9HAZ1) (Q9HAZ1 whole entry): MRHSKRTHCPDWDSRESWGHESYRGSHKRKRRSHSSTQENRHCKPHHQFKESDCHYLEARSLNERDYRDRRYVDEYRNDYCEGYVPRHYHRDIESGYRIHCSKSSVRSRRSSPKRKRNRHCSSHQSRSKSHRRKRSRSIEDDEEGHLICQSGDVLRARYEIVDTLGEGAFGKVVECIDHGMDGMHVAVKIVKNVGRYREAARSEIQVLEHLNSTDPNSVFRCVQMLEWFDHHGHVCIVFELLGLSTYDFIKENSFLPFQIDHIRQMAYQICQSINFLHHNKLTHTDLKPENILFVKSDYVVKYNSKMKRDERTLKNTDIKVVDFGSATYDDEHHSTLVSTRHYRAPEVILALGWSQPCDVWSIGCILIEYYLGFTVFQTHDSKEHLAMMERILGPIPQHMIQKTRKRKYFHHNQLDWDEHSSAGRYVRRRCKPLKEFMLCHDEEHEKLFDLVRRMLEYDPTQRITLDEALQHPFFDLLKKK

Row | Compound | KINOMEscan PLK4 [1] | KINOMEscan DCLK1 [2] | KINOMEscan FLT3(R834Q) [3] | KINOMEscan PIK3CB [4] | KINOMEscan MYLK4 [5] | KINOMEscan HIPK2 [6] | KINOMEscan CLK4 [7] | KINOMEscan CSNK1G1 [8]
1 | Cc1cccc(-c2nc(Nc3ccc4nn(C)cc4c3)c3ccccc3n2)n1 [NK167] | 0 | 49 | 0 | 0 | 0 | 33 | 22 | 0
2 | Cc1cccc(-c2nc(N(C)c3ccc4ncsc4c3)c3ccccc3n2)n1 [NK-161] | 3 | 36 | 2 | 0 | 0 | 28 | 10 | 0
